Laboratory results as given in US11318077B2, “Retinaldehyde containing compositions and methods of use” (RODAN & FIELDS, LLC, priority 2017, dated 2022).

Experiments:
[1] = test system: melanin production in MelanoDerm™ skin substitute; test: Melanin-modulatory effect in MelanoDerm skin substitutes (color measurement, melanin extraction); format: cell-based; conditions: for Color measurement (whitening units) / Melanin Content / Melanin Content (% control) / Raw *L values: 2 weeks
Procedure: Objective: The objective of this assay was to determine the ability of the test materials (dimethylisosorbide [DMI], retinoic acid [ATRA], 10% w/w NEAR-1 in dimethylisosorbide [NEAR-1], Niacinamide PC [NAD], and Kojic Acid [KA]) and combinations thereof to inhibit melanin production in MelanoDerm™ skin substitute model. The effect of these experimental conditions on the secretion of the proinflammatory cytokine IL-8 was also assessed, as a surrogate for skin irritation potential.
Tissues were equilibrated at 37° C. for 60 min. and undiluted samples (25 μl) of test materials were applied on top of tissues in duplicates. DMI and kojic acid were applied at 2.5% and 2% (w:v) respectively (dissolved in double distilled water). Tissue culture was pursued in the pigmentation-inducing medium EPI-100-NMM-113 for 14 days, with reapplication of test materials and changes of tissue culture media every 2-3 days.
At the end of the experiment, tissue pigmentation was quantified non-invasively with NS800 portable spectrophotometer (3NH Technology Co., Ltd., China). This instrument is a reflectance spectrophotometer that measures reflected light in the visible spectrum (range: 400-700 nm) recording colors in a three-dimensional space known as CIEL*a*b* color space. In this project, the L* value representing the lightness of the color was used for color assessment. For the purpose of this experiment, the range of the L* parameter spanned from 17.8 (black background) to 87.8 (white background).
For melanin quantification, the MelanoDerms were frozen, solubilized in Solvable™ (Perkin Elmer) and melanin was extracted at 95° C. overnight. The colorimetric signals proportional to the concentration of extracted melanin, as well as those proportional to the IL-8 in the tissue-conditioned medium in the ELISA test were quantified with Molecular Devices microplate spectrophotometer MAX190 at 490 nm and 405 nm.

MelanoDerm tissues = test: Cytotoxicity by microscopic observation of MelanoDerm tissues; format: cell-based; conditions: 2 weeks
Procedure: Tissues were equilibrated at 37° C. for 60 min. and undiluted samples (25 μl) of test materials were applied on top of tissues in duplicates. DMI and kojic acid were applied at 2.5% and 2% (w:v) respectively (dissolved in double distilled water). Tissue culture was pursued in the pigmentation-inducing medium […]-113 for 14 days, with reapplication of test materials and changes of tissue culture media every 2-3 days. Results and Discussion: From the macroscopic documentation of all the MelanoDerm tissues at the end of the experiment, differences of color are clearly visible between the solvent controls and some test materials. Table 34 informs whether cytotoxicity may have played a role in these differences. Table 34 also reports the non-invasive MelanoDerm color measurement performed with portable spectrophotometer. [table]

[2] = test system: Retinoid X receptor (RXR) transcription factor pathway; test: Cignal RXR Reporter Assay (firefly luciferase) in HEK293 cells; format: cell-based; conditions: for RXR activation (% control): 24 h, vs water
Description: Objective: Retinoid X receptors (RXRs) are one class of nuclear receptors through which retinoids mediate their biological effects. These receptors function as transcription factors by binding as heterodimers to specific sequences in the promoters of target genes. The protein encoded by this gene is a member of the steroid and thyroid hormone receptor superfamily of transcriptional regulators. One of its ligands is all trans retinoic acid (ATRA)—a compound with well-established anti-aging skin benefits. […] Cignal RXR Reporter Assay® is designed to screen for such compounds (retinoic acid (ATRA), retinal, 10% w/w Near-1 in dimethylisosorbide, and 10% w/w retinoid ester in dimethylisosorbide) using cell cultures. The objective of this project was to test four compounds for the ability to activate RXR in this Cignal RXR Reporter Assay model.
(§1) The experiments were performed using HEK293 cells (Sigma, St. Louis, Mo.; cat. #85120602) seeded at 50,000 per well in a 96 well black-wall tissue culture plate. Cells were transfected by mixing Cignal RXR Reporter Assay firefly/renilla luciferase constructs (cat. #CCS9044L; Qiagen) with Attractene Transfection Reagent (Qiagen) in Opti-MEM supplemented with 1% MEM Non-essential amino acid solution without Lglutamine. After medium change test materials were added and their effect on RXR induction was quantified 24 h later with the Dual-Luciferase Reporter Assay System (cat. #E1960; Promega).
RXR is a mixture of an inducible retinoid X receptor—responsive firefly luciferase construct and a constitutively expressing Renilla construct, which acts as an internal control for normalizing transfection efficiencies and monitoring cell viability. Signal quantification was obtained with ThermoFisher Scientific Luminoskan Ascent Microplate Luminometer.

[3] = test system: Retinoic Acid Response Element (RARE) transcription factor pathway; test: Cignal RARE Reporter Assay (firefly luciferase) in HEK293 cells; format: cell-based; conditions: 24 h, vs water
Description: Objective: Retinoic Acid Receptor (RAR) controls gene transcription by binding to Retinoid Acid Response Elements (RAREs) in DNA. This process is modulated by all trans retinoic acid (ATRA)—a compound with well-established anti-aging skin benefits. […] Cignal RARE Reporter Assay® is designed to screen for such compounds using cell cultures. The objective of this project was to test 6 compounds (retinoic acid (ATRA), retinol, vitamin A palmitate, retinal, 10% w/w Near-1 in dimethylisosorbide, and 10% w/w retinoid ester in dimethylisosorbide) for the ability to activate RARE in this Cignal RARE Reporter Assay model.
as §1, with “Materials & Methods: The” for “The”, “Cignal” for “Cignal RXR”, “#CCS-016L;” for “#CCS9044L;”, “L-glutamine.” for “Lglutamine.”, “RARE” for “RXR”

IL-8 = IL-8 in MelanoDerm tissue culture-conditioned medium by ELISA (skin irritation surrogate); format: cell-based, Human; conditions: day 14
Procedure: Objective: The objective of this assay was to determine the ability of the test materials (dimethylisosorbide [DMI], retinoic acid [ATRA], 10% w/w NEAR-1 in dimethylisosorbide [NEAR-1], Niacinamide PC [NAD], and Kojic Acid [KA]) and combinations thereof to inhibit melanin production in MelanoDerm™ skin substitute model. The effect of these experimental conditions on the secretion of the proinflammatory cytokine IL-8 was also assessed, as a surrogate for skin irritation potential. Tissue culture-conditioned media were assayed for the presence of IL-8 by indirect ELISA (using Invitrogen IL-8 Human CytoSet, cat. #CHC 1303). For melanin quantification, the MelanoDerms were frozen, solubilized in Solvable™ (Perkin Elmer) and melanin was extracted at 95° C. overnight. The colorimetric signals proportional to the concentration of extracted melanin, as well as those proportional to the IL-8 in the tissue-conditioned medium in the ELISA test were quantified with Molecular Devices microplate spectrophotometer MAX190 at 490 nm and 405 nm.

O=c1cc(CO)occ1O [KA, Kojic Acid] was tested. Which “Color measurement (whitening units)” value ([1]; 2%) did it give?
Its value is 9.8 whitening units.

What about the “Melanin Content” value ([1]; 2%) of the same compound?
The value was 38 µg/mL.

What about the “Melanin Content (% control)” value ([1]; 2%) of the same compound?
The value was 38 % control.

What about the “Raw *L values” ([1]; 2%) of the same compound?
Its value is 55.3.

What about the Cytotoxicity (MelanoDerm tissues; 2%) of the same compound?
The Cytotoxicity was “Yes”.

CC1=C(/C=C/C(C)=C/C=C/C(C)=C/C(=O)OCCNC(=O)c2cccnc2)C(C)(C)CCC1 [NEAR-1, 2-(nicotinamido)-ethyl retinoate] was tested. Which “RXR activation (% control)” value ([2]; 1 μM) did it give?
Its value is 103 % control.

What about the “RXR activation (% control)” value ([2]; 5 μM) of the same compound?
The value was 112 % control.

What about the “RXR activation (% control)” value ([2]; 10 μM) of the same compound?
The value was 127 % control.

And the “modulatory effect on RXR-mediated gene expression” value ([2]; 10 uM, statistically-significant)?
The value was 1.3 fold.

And the “Color measurement (whitening units)” value ([1]; 833 μM)?
The value was 30.0 whitening units.

And the “Raw *L values” ([1]; 833 μM)?
The value was 72.8.

What about the “Color measurement (whitening units)” value ([1]; 2.2 mM) of the same compound?
Its value is 27.4 whitening units.

And the “Melanin Content” value ([1]; 2.2 mM)?
The value was 22 µg/mL.

What about the “Melanin Content (% control)” value ([1]; 2.2 mM) of the same compound?
Its value is 26 % control.

And the “Raw *L values” ([1]; 2.2 mM)?
Its value is 70.2.

And the “Whitening effect (ranking in the retinoid category)” value ([1]; NEAR-1 at 833 μM, Retinaldehyde 833 μM+NAD 835 μM)?
The value was “best whitening effect at non-cytotoxic concentration”.

What about the “RARE-mediated firefly luciferase expression, % control” value ([3]; 1 μM) of the same compound?
Its value is 461 % control.

And the “RARE-mediated firefly luciferase expression, Fold increase” value ([3]; 1 μM)?
The value was 4.6.

What about the “RARE-mediated firefly luciferase expression, % control” value ([3]; 5 μM) of the same compound?
The value was 652 % control.

What about the “RARE-mediated firefly luciferase expression, Fold increase” value ([3]; 5 μM) of the same compound?
The value was 6.5.

And the “RARE-mediated firefly luciferase expression, % control” value ([3]; 10 μM)?
Its value is 586 % control.

What about the “RARE-mediated firefly luciferase expression, Fold increase” value ([3]; 10 μM) of the same compound?
The value was 5.8.

And the Cytotoxicity (MelanoDerm tissues; 2.2 mM)?
The Cytotoxicity was “Yes”.

And the “IL-8 (col. Units)” value (IL-8; 833 μM)?
The value was 208 col. Units.

And the “IL-8 (col. Units)” value (IL-8; 2.2 mM)?
Its value is 209 col. Units.
